# ChEMBL document CHEMBL3885861, “Open TG-GATES”
# Species: Rattus norvegicus
# Experiment: Open TG-GATES - Regimen: Single
# Assay type: toxicity, organism-based, Sprague-Dawley
# Parameters: regimen Single, gender Male, age 6 weeks
# Conditions: in vivo, po, 10 mg/kg, route gavage, dose level Low; for APTT / Bas / Eos / Fbg / Hb / Ht / Lym / MCH / MCHC / MCV / Mono / Neu / PT / Plat / RBC / Ret / WBC: tissue Blood; for KIDNEY_L / KIDNEY_R / KIDNEY_TOTAL: tissue Kidney; for LIVER: tissue Liver; for A/G / ALP / ALT / AST / BUN / CRE / Ca / Cl / DBIL / GLC / IP / K / LDH / Na / PL / RALB / TBIL / TC / TG / TP / gamma-GTP: tissue Plasma
structure (smiles),measurement,setting,value
CCN(CC)N=O [N-NITROSODIETHYLAMINE],TERMINAL_BW,3 h,222.2 g
same,APTT,3 h,18.5 s
same,Bas,3 h,0.4%
same,Eos,3 h,0.8%
same,Fbg,3 h,221.2 mg/dL
same,Hb,3 h,13.4 g/dL
same,Ht,3 h,39.5%
same,Lym,3 h,74.8%
same,MCH,3 h,21.3 pg
same,MCHC,3 h,33.9%
same,MCV,3 h,62.8 fL
same,Mono,3 h,2.2%
same,Neu,3 h,21.2%
same,PT,3 h,12.3 s
same,Plat,3 h,120.1 x10_4/uL
same,RBC,3 h,629.8 x10_4/ul
same,Ret,3 h,7.4%
same,WBC,3 h,85.8 x10_2/uL
same,KIDNEY_L,3 h,1 g
same,KIDNEY_R,3 h,1 g
same,KIDNEY_TOTAL,3 h,2 g
same,LIVER,3 h,9.3 g
same,A/G,3 h,1.7
same,ALP,3 h,906.2 IU/L
same,ALT,3 h,45 IU/L
same,AST,3 h,74.4 IU/L
same,BUN,3 h,10.8 mg/dL
same,CRE,3 h,0.4 mg/dL
same,Ca,3 h,10.2 mg/dL
same,Cl,3 h,103 meq/L
same,DBIL,3 h,0.062 mg/dL
same,GLC,3 h,190.2 mg/dL
same,IP,3 h,8.8 mg/dL
same,K,3 h,3.6 meq/L
same,LDH,3 h,194 IU/L
same,Na,3 h,141.2 meq/L
same,PL,3 h,123.4 mg/dL
same,RALB,3 h,3.4 g/dL
same,TBIL,3 h,0.1 mg/dL
same,TC,3 h,77.4 mg/dL
same,TG,3 h,34 mg/dL
same,TP,3 h,5.4 g/dL
same,gamma-GTP,3 h,1 IU/L
same,TERMINAL_BW,6 h,226.2 g
same,APTT,6 h,18.6 s
same,Bas,6 h,0.6%
same,Eos,6 h,1%
same,Fbg,6 h,235 mg/dL
same,Hb,6 h,13.3 g/dL
same,Ht,6 h,39.1%
same,Lym,6 h,78%
same,MCH,6 h,20.7 pg
same,MCHC,6 h,34%
same,MCV,6 h,60.9 fL
same,Mono,6 h,2.4%
same,Neu,6 h,17.4%
same,PT,6 h,12.1 s
same,Plat,6 h,127.1 x10_4/uL
same,RBC,6 h,642.4 x10_4/ul
same,Ret,6 h,6.1%
same,WBC,6 h,90.2 x10_2/uL
same,KIDNEY_L,6 h,1 g
same,KIDNEY_R,6 h,1 g
same,KIDNEY_TOTAL,6 h,2 g
same,LIVER,6 h,10.3 g
same,A/G,6 h,1.5
same,ALP,6 h,923.4 IU/L
same,ALT,6 h,39 IU/L
same,AST,6 h,69 IU/L
same,BUN,6 h,14.2 mg/dL
same,CRE,6 h,0.4 mg/dL
same,Ca,6 h,10.4 mg/dL
same,Cl,6 h,103.2 meq/L
same,DBIL,6 h,0.078 mg/dL
same,GLC,6 h,199.2 mg/dL
same,IP,6 h,7.6 mg/dL
same,K,6 h,3.7 meq/L
same,LDH,6 h,220.8 IU/L
same,Na,6 h,140.6 meq/L
same,PL,6 h,144 mg/dL
same,RALB,6 h,3.3 g/dL
same,TBIL,6 h,0.1 mg/dL
same,TC,6 h,81 mg/dL
same,TG,6 h,62.6 mg/dL
same,TP,6 h,5.6 g/dL
same,gamma-GTP,6 h,1.2 IU/L
same,TERMINAL_BW,9 h,226.3 g
same,APTT,9 h,18.1 s
same,Bas,9 h,0.8%
same,Eos,9 h,1%
same,Fbg,9 h,222.4 mg/dL
same,Hb,9 h,14 g/dL
same,Ht,9 h,40.2%
same,Lym,9 h,80.6%
same,MCH,9 h,21.7 pg
same,MCHC,9 h,34.8%
same,MCV,9 h,62.1 fL
same,Mono,9 h,2.4%
same,Neu,9 h,14.4%
same,PT,9 h,12.2 s
same,Plat,9 h,123.8 x10_4/uL
same,RBC,9 h,647 x10_4/ul
same,Ret,9 h,6.7%
same,WBC,9 h,100.3 x10_2/uL
same,KIDNEY_L,9 h,0.9 g
same,KIDNEY_R,9 h,1 g
same,KIDNEY_TOTAL,9 h,1.9 g
same,LIVER,9 h,10.3 g
same,A/G,9 h,1.6
same,ALP,9 h,1025.2 IU/L
same,ALT,9 h,38.6 IU/L
same,AST,9 h,67.2 IU/L
same,BUN,9 h,14.4 mg/dL
same,CRE,9 h,0.4 mg/dL
same,Ca,9 h,10.7 mg/dL
same,Cl,9 h,103.2 meq/L
same,DBIL,9 h,0.09 mg/dL
same,GLC,9 h,188.4 mg/dL
same,IP,9 h,8.3 mg/dL
same,K,9 h,3.9 meq/L
same,LDH,9 h,169.8 IU/L
same,Na,9 h,141.4 meq/L
same,PL,9 h,141.4 mg/dL
same,RALB,9 h,3.5 g/dL
same,TBIL,9 h,0.1 mg/dL
same,TC,9 h,76 mg/dL
same,TG,9 h,90.4 mg/dL
same,TP,9 h,5.7 g/dL
same,gamma-GTP,9 h,1.2 IU/L
same,TERMINAL_BW,24 h,229.3 g
same,APTT,24 h,19.1 s
same,Bas,24 h,0.4%
same,Eos,24 h,1%
same,Fbg,24 h,235.6 mg/dL
same,Hb,24 h,13.5 g/dL
same,Ht,24 h,39.9%
same,Lym,24 h,78.4%
same,MCH,24 h,21.2 pg
same,MCHC,24 h,33.9%
same,MCV,24 h,62.5 fL
same,Mono,24 h,3%
same,Neu,24 h,16.6%
same,PT,24 h,11.9 s
same,Plat,24 h,124.7 x10_4/uL
same,RBC,24 h,638.2 x10_4/ul
same,Ret,24 h,6.6%
same,WBC,24 h,79.1 x10_2/uL
same,KIDNEY_L,24 h,1 g
same,KIDNEY_R,24 h,1 g
same,KIDNEY_TOTAL,24 h,2 g
same,LIVER,24 h,10.1 g
same,A/G,24 h,1.5
same,ALP,24 h,877 IU/L
same,ALT,24 h,34.8 IU/L
same,AST,24 h,64.4 IU/L
same,BUN,24 h,14.4 mg/dL
same,CRE,24 h,0.4 mg/dL
same,Ca,24 h,10.7 mg/dL
same,Cl,24 h,104.6 meq/L
same,DBIL,24 h,0.086 mg/dL
same,GLC,24 h,202.8 mg/dL
same,IP,24 h,9.4 mg/dL
same,K,24 h,4 meq/L
same,LDH,24 h,208.6 IU/L
same,Na,24 h,141.6 meq/L
same,PL,24 h,142.6 mg/dL
same,RALB,24 h,3.3 g/dL
same,TBIL,24 h,0.1 mg/dL
same,TC,24 h,73.8 mg/dL
same,TG,24 h,86.4 mg/dL
same,TP,24 h,5.5 g/dL
same,gamma-GTP,24 h,1.4 IU/L
